Laboratory results reported in US8871753B2, “Macrocyclic compounds and their use as kinase inhibitors” (Incyte Corporation, priority 2008, dated 2014).
Counter-ions that a name gives are not always drawn.

Columns and labels:
Type in all cases: biochemical
[1] = molecular target: T1, human JAK1 (a.a. 837-1142) (Homo sapiens, UniProt P23458); experiment: In vitro JAK kinase assay (HTRF, phosphorylation of a biotinylated peptide), JAK1; details: Table D1; read-out: JAK1 IC50
T1 construct: human JAK1 (a.a. 837-1142); His tag (N); made in house; host or cells: insect cells (baculovirus)
T1 sequence (P23458 849-1154): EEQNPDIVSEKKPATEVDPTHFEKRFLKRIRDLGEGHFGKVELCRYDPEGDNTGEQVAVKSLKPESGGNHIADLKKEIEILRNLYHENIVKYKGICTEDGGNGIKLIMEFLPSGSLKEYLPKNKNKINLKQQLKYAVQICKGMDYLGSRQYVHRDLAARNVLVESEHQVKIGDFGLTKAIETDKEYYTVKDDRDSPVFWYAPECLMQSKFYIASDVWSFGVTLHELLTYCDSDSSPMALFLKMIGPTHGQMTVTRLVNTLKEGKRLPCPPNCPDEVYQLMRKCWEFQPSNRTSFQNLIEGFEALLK
Procedure, shortened: (§1)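 Phosphorylation of a biotinylated peptide by the JAK kinase domain, detected by HTRF with Eu-Py20 and SA-APC. ATP was 90 μM for JAK1, 30 μM for JAK2 and 3 μM for JAK3. Reactions ran 1 h at room temperature and were stopped with EDTA, followed by 40 min antibody binding.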

[2] = molecular target: T2, human JAK2 (a.a. 828-1132) (Homo sapiens, UniProt O60674); experiment: In vitro JAK kinase assay (HTRF, phosphorylation of a biotinylated peptide), JAK2; details: Table D1
T2 construct: JAK2 (a.a. 828-1132); His tag (N); made in house; host or cells: insect cells (baculovirus)
T2 sequence (O60674 828-1132): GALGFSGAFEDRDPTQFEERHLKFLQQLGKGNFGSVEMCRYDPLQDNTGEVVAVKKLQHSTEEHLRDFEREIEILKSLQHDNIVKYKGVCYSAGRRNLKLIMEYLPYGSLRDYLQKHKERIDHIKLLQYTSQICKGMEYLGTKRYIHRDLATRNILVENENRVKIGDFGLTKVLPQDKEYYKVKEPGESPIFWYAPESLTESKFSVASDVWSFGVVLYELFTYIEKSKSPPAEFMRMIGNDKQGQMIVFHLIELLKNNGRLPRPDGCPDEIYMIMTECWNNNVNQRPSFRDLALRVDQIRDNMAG
Procedure, shortened: as §1

[3] = molecular target: T3, human JAK3 (a.a. 781-1124) (Homo sapiens, UniProt P52333); experiment: In vitro JAK kinase assay (HTRF, phosphorylation of a biotinylated peptide), JAK3; details: Table D1
T3 construct: JAK3 (a.a. 781-1124); His tag (N); made in house; host or cells: insect cells (baculovirus)
T3 sequence (P52333 781-1124): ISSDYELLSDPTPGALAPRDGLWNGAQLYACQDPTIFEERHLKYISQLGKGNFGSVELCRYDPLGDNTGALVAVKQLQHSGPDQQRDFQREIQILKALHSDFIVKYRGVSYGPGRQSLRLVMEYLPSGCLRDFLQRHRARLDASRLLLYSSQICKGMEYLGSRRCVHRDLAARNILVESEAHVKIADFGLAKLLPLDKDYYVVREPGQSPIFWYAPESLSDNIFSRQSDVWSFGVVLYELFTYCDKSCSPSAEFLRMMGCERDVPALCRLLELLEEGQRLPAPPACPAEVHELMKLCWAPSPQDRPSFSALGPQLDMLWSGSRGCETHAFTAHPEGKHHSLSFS
Procedure, shortened: as §1

TYK2 = TYK2 (Homo sapiens, UniProt P29597); experiment: TYK2 kinase inhibition (Table A1); details: Table D1
TYK2, sequence (P29597 whole entry): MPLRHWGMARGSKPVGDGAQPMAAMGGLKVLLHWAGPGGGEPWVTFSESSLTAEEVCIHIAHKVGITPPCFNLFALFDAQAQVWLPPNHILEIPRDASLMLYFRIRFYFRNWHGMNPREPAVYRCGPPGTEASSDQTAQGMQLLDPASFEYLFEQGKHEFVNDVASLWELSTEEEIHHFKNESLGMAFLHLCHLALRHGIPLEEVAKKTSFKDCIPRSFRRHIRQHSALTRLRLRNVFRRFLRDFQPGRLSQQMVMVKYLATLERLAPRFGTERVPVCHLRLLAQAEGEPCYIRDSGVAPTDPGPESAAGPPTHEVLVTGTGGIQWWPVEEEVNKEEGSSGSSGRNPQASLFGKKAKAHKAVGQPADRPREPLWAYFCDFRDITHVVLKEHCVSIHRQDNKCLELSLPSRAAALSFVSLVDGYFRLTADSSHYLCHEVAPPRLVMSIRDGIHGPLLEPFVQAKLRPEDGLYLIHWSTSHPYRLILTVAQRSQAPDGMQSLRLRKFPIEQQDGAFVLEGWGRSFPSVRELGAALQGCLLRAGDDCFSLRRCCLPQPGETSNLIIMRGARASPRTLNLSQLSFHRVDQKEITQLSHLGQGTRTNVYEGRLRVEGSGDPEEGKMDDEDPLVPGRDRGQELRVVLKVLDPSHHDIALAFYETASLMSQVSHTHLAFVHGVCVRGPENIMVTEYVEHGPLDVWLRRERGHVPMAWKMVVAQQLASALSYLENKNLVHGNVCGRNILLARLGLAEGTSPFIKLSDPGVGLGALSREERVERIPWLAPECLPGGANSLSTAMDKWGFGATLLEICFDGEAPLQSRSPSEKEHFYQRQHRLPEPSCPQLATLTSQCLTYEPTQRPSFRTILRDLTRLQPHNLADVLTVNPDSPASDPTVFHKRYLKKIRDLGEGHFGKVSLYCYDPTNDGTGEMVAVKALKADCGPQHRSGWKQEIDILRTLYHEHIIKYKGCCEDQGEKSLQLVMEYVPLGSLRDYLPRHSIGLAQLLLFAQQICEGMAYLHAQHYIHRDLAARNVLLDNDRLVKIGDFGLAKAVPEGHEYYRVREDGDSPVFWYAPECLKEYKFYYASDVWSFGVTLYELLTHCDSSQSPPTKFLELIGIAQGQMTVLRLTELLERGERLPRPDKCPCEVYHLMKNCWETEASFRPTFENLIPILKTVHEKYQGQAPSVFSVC

[4] = molecular target: T4, Recombinant Human Anaplastic Lymphoma Kinase (Homo sapiens, UniProt Q9UM73); experiment: ALK HTRF kinase assay; details: Table D1; 90 μM ATP
T4 construct: purchased Invitrogen, Carlsbad, Calif
T4 sequence (Q9UM73 19-1620): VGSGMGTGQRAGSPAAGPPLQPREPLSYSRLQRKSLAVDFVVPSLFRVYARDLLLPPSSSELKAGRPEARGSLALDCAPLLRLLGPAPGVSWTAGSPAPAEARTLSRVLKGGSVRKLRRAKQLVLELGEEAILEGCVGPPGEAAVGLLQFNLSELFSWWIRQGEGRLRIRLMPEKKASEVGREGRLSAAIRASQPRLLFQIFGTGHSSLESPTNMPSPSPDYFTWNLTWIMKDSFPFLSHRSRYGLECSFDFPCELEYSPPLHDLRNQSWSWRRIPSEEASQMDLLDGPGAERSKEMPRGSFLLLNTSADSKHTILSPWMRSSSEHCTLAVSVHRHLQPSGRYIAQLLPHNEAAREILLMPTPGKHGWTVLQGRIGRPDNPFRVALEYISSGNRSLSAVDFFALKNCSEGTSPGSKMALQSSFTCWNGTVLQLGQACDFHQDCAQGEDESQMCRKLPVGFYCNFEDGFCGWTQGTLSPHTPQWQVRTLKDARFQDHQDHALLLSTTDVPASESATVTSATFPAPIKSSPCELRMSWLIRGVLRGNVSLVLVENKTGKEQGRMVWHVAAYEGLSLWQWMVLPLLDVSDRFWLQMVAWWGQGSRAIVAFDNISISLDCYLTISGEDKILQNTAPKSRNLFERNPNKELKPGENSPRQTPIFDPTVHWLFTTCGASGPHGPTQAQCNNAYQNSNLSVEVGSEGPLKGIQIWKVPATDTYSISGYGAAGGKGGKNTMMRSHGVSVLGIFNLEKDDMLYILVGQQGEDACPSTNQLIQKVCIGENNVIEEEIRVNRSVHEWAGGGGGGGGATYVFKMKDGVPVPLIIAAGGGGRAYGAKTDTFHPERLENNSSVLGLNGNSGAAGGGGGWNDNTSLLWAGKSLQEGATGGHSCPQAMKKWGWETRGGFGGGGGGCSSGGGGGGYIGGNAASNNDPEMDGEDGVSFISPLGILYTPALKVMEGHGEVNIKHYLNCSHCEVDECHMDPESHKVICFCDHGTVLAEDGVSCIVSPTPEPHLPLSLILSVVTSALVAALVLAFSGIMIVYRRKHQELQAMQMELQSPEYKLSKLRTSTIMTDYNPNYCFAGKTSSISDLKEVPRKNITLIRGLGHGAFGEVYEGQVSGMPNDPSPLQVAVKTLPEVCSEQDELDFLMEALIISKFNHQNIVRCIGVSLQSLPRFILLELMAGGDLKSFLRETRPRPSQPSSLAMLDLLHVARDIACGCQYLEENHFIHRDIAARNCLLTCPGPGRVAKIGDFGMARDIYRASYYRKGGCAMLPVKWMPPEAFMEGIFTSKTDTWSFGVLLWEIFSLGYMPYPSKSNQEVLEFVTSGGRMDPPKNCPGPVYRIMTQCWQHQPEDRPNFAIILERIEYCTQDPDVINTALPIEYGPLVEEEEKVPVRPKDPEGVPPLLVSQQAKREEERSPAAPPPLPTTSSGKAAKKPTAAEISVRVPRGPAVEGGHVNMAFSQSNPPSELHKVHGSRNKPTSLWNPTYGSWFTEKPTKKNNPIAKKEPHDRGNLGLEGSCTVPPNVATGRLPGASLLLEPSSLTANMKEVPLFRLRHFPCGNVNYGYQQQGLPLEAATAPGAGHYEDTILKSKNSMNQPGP
Procedure, shortened: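 Recombinant human ALK phosphorylated a biotinylated synthetic peptide. Phosphotyrosine was detected by TR-FRET between a Eu-labelled anti-phosphotyrosine antibody and streptavidin-allophycocyanin. IC50 values came from fitting signal against inhibitor concentration to a four-parameter logistic equation with variable Hill slope.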

Row | IC50 [1] | IC50 [2] | IC50 [3] | IC50 (TYK2) | IC50 [4] | Structure (SMILES)
1 | 100 nM | 61 nM | > 100 nM | > 100 nM | > 10000 nM | Clc1cnc2nc1Nc1cccc(c1)OCc1cccc(c1)N2 [Example D7, 6-Chloro-14-oxa-2,4,8,22-tetraazatetracyclo[14.3.1.1(3,7).1(9,13)]docosa-1(20),3(22),4,6,9(21),10,12,16,18-nonaene trifluoroacetate]
2 | 7.9 nM | 5.4 nM | 13 nM | 19 nM | 351 nM | Clc1cnc2nc1Nc1cccc(c1)OCCc1cccc(c1)N2 [Example D8, 6-Chloro-14-oxa-2,4,8,23-tetraazatetracyclo[15.3.1.1(3,7).1(9,13)]tricosa-1(21),3(23),4,6,9(22),10,12,17,19-nonaene trifluoroacetate]
3 | 183 nM | 47 nM | 489 nM | 137 nM | > 952 nM | CN1c2cccc(c2)OCCc2cccc(c2)Nc2ncc(Cl)c1n2 [Example D9, 6-Chloro-8-methyl-14-oxa-2,4,8,23-tetraazatetracyclo[15.3.1.1(3,7).1(9,13)]tricosa-1(21),3(23),4,6,9(22),10,12,17,19-nonaene trifluoroacetate]
4 | 8.2 nM | 2.4 nM | 10 nM | 8.1 nM | 791 nM | Clc1cnc2nc1Nc1cccc(c1)OCCOc1cccc(c1)N2 [Example D10, 6-Chloro-14,17-dioxa-2,4,8,24-tetraazatetracyclo[16.3.1.1(3,7).1(9,13)]tetracosa-1(22),3(24),4,6,9(23),10,12,18,20-nonaene trifluoroacetate]
5 | 3.4 nM | 5.4 nM | 24 nM | 9.9 nM | 480 nM | Clc1cnc2nc1Nc1cccc(c1)SCCOc1cccc(c1)N2 [Example D11, 6-Chloro-17-oxa-14-thia-2,4,8,24-tetraazatetracyclo[16.3.1.1(3,7).1(9,13)]tetracosa-1(22),3(24),4,6,9(23),10,12,18,20-nonaene trifluoroacetate]
6 | 178 nM | 290 nM | 369 nM | 324 nM | > 10000 nM | Clc1cnc2nc1Nc1cccc(c1)SSc1cccc(c1)N2 [Example D12, 6-Chloro-14,15-dithia-2,4,8,22-tetraazatetracyclo[14.3.1.1(3,7).1(9,13)]docosa-1(20),3(22),4,6,9(21),10,12,16,18-nonaene trifluoroacetate]
7 | 3.6 nM | 2.1 nM | 24 nM | 12 nM | 1740 nM | [O-][S+]1CCOc2cccc(c2)Nc2ncc(Cl)c(n2)Nc2cccc1c2 (stereo not drawn) [Example D13, 6-Chloro-17-oxa-14-thia-2,4,8,24-tetraazatetracyclo[16.3.1.1(3,7).1(9,13)]tetracosa-1(22),3(24),4,6,9(23),10,12,18,20-nonaene 14-oxide trifluoroacetate]
8 | 2.2 nM | 2.2 nM | 11 nM | 5 nM | 732 nM | O=S1(=O)CCOc2cccc(c2)Nc2ncc(Cl)c(n2)Nc2cccc1c2 [Example D14, 6-Chloro-17-oxa-14-thia-2,4,8,24-tetraazatetracyclo[16.3.1.1(3,7).1(9,13)]tetracosa-1(22),3(24),4,6,9(23),10,12,18,20-nonaene 14,14-dioxide trifluoroacetate]
9 | 93 nM | 61 nM | 135 nM | 88 nM | > 10000 nM | Clc1cnc2nc1Nc1cccc(c1)OCCSc1cccc(c1)N2 [Example D15, 6-Chloro-14-oxa-17-thia-2,4,8,24-tetraazatetracyclo[16.3.1.1(3,7).1(9,13)]tetracosa-1(22),3(24),4,6,9(23),10,12,18,20-nonaene trifluoroacetate]
10 | 63 nM | 32 nM | 165 nM | 77 nM | > 1000 nM | Clc1cnc2nc1Nc1cccc(c1)CNc1cccc(c1)N2 [Example D17, 6-Chloro-2,4,8,15,22-pentaazatetracyclo[14.3.1.1(3,7).1(9,13)]docosa-1(20),3(22),4,6,9(21),10,12,16,18-nonaene bis(trifluoroacetate)]
11 | 5.4 nM | 6.6 nM | 24 nM | 19 nM | 327 nM | Clc1cnc2nc1Nc1cccc(c1)SCCc1cccc(c1)N2 [Example D18, 6-Chloro-14-thia-2,4,8,23-tetraazatetracyclo[15.3.1.1(3,7).1(9,13)]tricosa-1(21),3(23),4,6,9(22),10,12,17,19-nonaene trifluoroacetate]
12 | 150 nM | 16 nM | 39 nM | 149 nM | 562 nM | Clc1cnc2nc1Nc1cccc(c1)CCSc1cccc(c1)N2 [Example D19, 6-Chloro-16-thia-2,4,8,23-tetraazatetracyclo[15.3.1.1(3,7).1(9,13)]tricosa-1(21),3(23),4,6,9(22),10,12,17,19-nonaene hydrochloride]
13 | 41 nM | 32 nM | 88 nM | 102 nM | 598 nM | Clc1cnc2nc1Nc1cccc(c1)CSCc1cccc(c1)N2 [Example D20, 6-Chloro-15-thia-2,4,8,23-tetraazatetracyclo[15.3.1.1(3,7).1(9,13)]tricosa-1(21),3(23),4,6,9(22),10,12,17,19-nonaene trifluoroacetate]
14 | 8.1 nM | 13 nM | 45 nM | 27 nM | 984 nM | Clc1cnc2nc1Nc1cccc(c1)COCc1cccc(c1)N2 [Example D21, 6-Chloro-15-oxa-2,4,8,23-tetraazatetracyclo[15.3.1.1(3,7).1(9,13)]tricosa-1(21),3(23),4,6,9(22),10,12,17,19-nonaene trifluoroacetate]
15 | 4.2 nM | 7.9 nM | 41 nM | 28 nM | 489 nM | Clc1cnc2nc1Nc1cccc(c1)OCCc1cc(Br)cc(c1)N2 [Example D22, 19-Bromo-6-chloro-14-oxa-2,4,8,23-tetraazatetracyclo[15.3.1.1(3,7).1(9,13)]tricosa-1(21),3(23),4,6,9(22),10,12,17,19-nonaene trifluoroacetate]
16 | 5 nM | 6 nM | 20 nM | 16 nM | 1370 nM | O=S1(=O)CCc2cccc(c2)Nc2ncc(Cl)c(n2)Nc2cccc1c2 [Example D24, 6-chloro-14-thia-2,4,8,23-tetraazatetracyclo[15.3.1.1(3,7).1(9,13)]tricosa-1(21),3(23),4,6,9(22),10,12,17,19-nonaene 14,14-dioxide trifluoroacetate]
17 | 1.1 nM | 0.3 nM | 8.8 nM | 2.1 nM | 110 nM | Clc1cnc2nc1Nc1cccc(c1)OCCc1cc(cc(-c3ccncc3)c1)N2 [Example D25, 6-Chloro-19-pyridin-4-yl-14-oxa-2,4,8,23-tetraazatetracyclo[15.3.1.1(3,7).1(9,13)]tricosa-1(21),3(23),4,6,9(22),10,12,17,19-nonaene bis(trifluoroacetate)]
18 | 1.2 nM | 0.6 nM | 8.5 nM | 2.7 nM | 138 nM | Clc1cnc2nc1Nc1cccc(c1)OCCc1cc(cc(-c3cccnc3)c1)N2 [Example D26, 6-Chloro-19-pyridin-3-yl-14-oxa-2,4,8,23-tetraazatetracyclo[15.3.1.1(3,7).1(9,13)]tricosa-1(21),3(23),4,6,9(22),10,12,17,19-nonaene bis(trifluoroacetate)]
19 | 1.5 nM | 0.3 nM | 3.5 nM | 3.9 nM | 32 nM | Clc1cnc2nc1Nc1cccc(c1)OCCc1cc(cc(-c3ccnc(N4CCNCC4)c3)c1)N2 [Example D27, 6-Chloro-19-(2-piperazin-1-ylpyridin-4-yl)-14-oxa-2,4,8,23-tetraazatetracyclo[15.3.1.1(3,7).1(9,13)]tricosa-1(21),3(23),4,6,9(22),10,12,17,19-nonaene tris(trifluoroacetate)]
20 | 6.2 nM | 5.2 nM | 53 nM | 25 nM | 525 nM | Clc1cnc2nc1Nc1cccc(c1)OCCc1cc(cc(-c3ccccc3)c1)N2 [Example D28, 6-Chloro-19-phenyl-14-oxa-2,4,8,23-tetraazatetracyclo[15.3.1.1(3,7).1(9,13)]tricosa-1(21),3(23),4,6,9(22),10,12,17,19-nonaene trifluoroacetate]
21 | 2 nM | 0.5 nM | 14 nM | 3.4 nM | 238 nM | CS(=O)(=O)c1ccc(-c2cc3cc(c2)Nc2ncc(Cl)c(n2)Nc2cccc(c2)OCC3)cc1 [Example D29, 6-Chloro-19-[4-(methylsulfonyl)phenyl]-14-oxa-2,4,8,23-tetraazatetracyclo[15.3.1.1(3,7).1(9,13)]tricosa-1(21),3(23),4,6,9(22),10,12,17,19-nonaene trifluoroacetate]
